What all share (assay type): cell-based
The subject of assay [1] is KRAS-G12V mutant tumor cells SW620. Description: Cell Proliferation Inhibition Assay (SW620), Cell-titer GLO, 96 h. The settings on record: Homo sapiens, SW-620, 96 h, read-out: SW620(G12V). The protocol: (§1) KRAS-G12V mutant tumor cells SW620 were seeded in low-attachment 96-well plates at a cell density of 1×10^3 cells/well and cultured overnight in a cell culture incubator. After the cells adhered, the test compounds were added to the 96-well plates at final concentrations of 10000, 2000, 400, 80, 16, 3.2, 0.64, 0.13, 0.03, 0 nM (final concentration of DMSO was 0.5% for all). After incubation at 37°C for 96 h, 50 µL of Cell-titer GLO working solution was added to each well, mixed by shaking, incubated at room temperature for 10 min, and the Luminescence value was read on a multi-function microplate reader. The luminescence data were calculated and converted into inhibition percent. The inhibition percent of cell proliferation was calculated according to the following formula: Inhibition Percent = (MaxValue−MeasuredValue)/(MaxValue−Blank) × 100% [formula]
("Max Value" comes from the 0.5% DMSO control well, "Blank" comes from the blank control well, and "Measured Value" comes from the compound-treated well).
Curve fitting was performed using GraphPad Prism software to obtain IC50 values, see Table 1.

The next assay deals with T1, KRAS G12V-cRAF (Homo sapiens, UniProt P01116, G12V).
T1 construct: expressed in transfected cells
T1 sequence (P01116 1-188 isoform P01116-2 G12V): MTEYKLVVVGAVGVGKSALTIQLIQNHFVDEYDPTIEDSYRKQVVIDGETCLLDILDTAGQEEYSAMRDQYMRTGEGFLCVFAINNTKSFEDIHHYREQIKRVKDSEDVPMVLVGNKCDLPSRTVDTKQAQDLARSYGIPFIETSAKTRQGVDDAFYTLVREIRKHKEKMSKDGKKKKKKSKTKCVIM
In words: Cellular KRAS G12V-cRAF Binding Inhibition Assay (NanoBRET, AD293 stable cells). The settings on record: 3 h incubation. As to the method:
NanoLuc® luciferase was used as the energy donor, and NanoBRET™ 618 fluorescent ligand labeled with the HaloTag® protein was used as the energy acceptor to detect protein-protein interactions in living cells. […] Except for wells with medium added as a blank control, NanoBRET™ 618 fluorescent ligand was added to all other wells, and the plates were cultured overnight in a cell culture incubator. […] The luminescence data were calculated and converted into inhibition percent. The inhibition percent of KRAS G12V-cRAF binding was calculated according to the following formula: Inhibition Percent = (MaxValue−MeasuredValue)/(MaxValue−Blank) × 100% [formula] […] Curve fitting was performed using GraphPad Prism software to obtain IC50 values, see Table 1.

The target of a further assay is T2, KRAS G12D-cRAF (Homo sapiens, UniProt P01116, G12D).
T2 construct: expressed in transfected cells
T2 sequence (P01116 1-188 isoform P01116-2 G12D): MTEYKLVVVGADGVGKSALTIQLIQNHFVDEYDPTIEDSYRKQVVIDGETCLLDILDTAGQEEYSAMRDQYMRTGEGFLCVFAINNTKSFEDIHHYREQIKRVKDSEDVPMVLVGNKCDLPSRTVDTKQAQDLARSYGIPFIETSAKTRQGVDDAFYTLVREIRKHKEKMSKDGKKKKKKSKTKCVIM
Description: Cellular KRAS G12D-cRAF Binding Inhibition Assay (NanoBRET, AD293 stable cells). The note with it: 3 h incubation. As to the method:
NanoLuc® luciferase was used as the energy donor, and NanoBRET™ 618 fluorescent ligand labeled with the HaloTag® protein was used as the energy acceptor to detect protein-protein interactions in living cells. AD293 stable cells transfected with KRAS G12D-NanoLuc® luciferase and cRAF RBD-HaloTag® tag protein were seeded in 96-well plates at a cell density of 1×10^4 cells/well. Except for wells with medium added as a blank control, NanoBRET™ 618 fluorescent ligand was added to all other wells, and the plates were cultured overnight in a cell culture incubator. […] The luminescence data were calculated and converted into inhibition percent. The inhibition percent of KRAS G12D-cRAF binding was calculated according to the following formula: Inhibition Percent = (MaxValue−MeasuredValue)/(MaxValue−Blank) × 100% [formula] […] Curve fitting was performed using GraphPad Prism software to obtain IC50 values, see Table 1.
For orientation: BRET reads energy transfer from a luciferase to a nearby fluorophore.

Assay [2] deals with KRAS-G12D mutant tumor cells AGS. Description: Cell Proliferation Inhibition Assay (AGS), Cell-titer GLO, 96 h. The settings on record: Homo sapiens, AGS, 96 h, read-out: AGS(G12D). As to the method: as §1, with “KRAS-G12D” for “KRAS-G12V”, “AGS” for “SW620”, “After the cells adhered, the test compounds were added to the 96-well plates at final concentrations of 10000, 2000, 400, 80, 16, 3.2, 0.64, 0.13, 0.03, 0 nM (final concentration of DMSO was 0.5% for all).” left out, “[formula] […] Curve fitting was performed using GraphPad Prism software to obtain IC50 values, see Table 1.” for “[formula]”

Where [3] appears, read: SW620 cells, 96 h incubation, Cell-titer GLO.
Where [4] appears, read: AGS cells, 96 h incubation, Cell-titer GLO.

Read-outs that look alike come from different tables or passages of the source.

Turning to `C[C@@H]1OCCCn2c(c3c4cc(ccc42)-c2csc(n2)C[C@H](NC(=O)[C@H]2C[C@@H]2C)C(=O)N2CCC[C@H](N2)C(=O)OCC(C)(C)C3)-c2cc(N3CCN(C)CC3)cnc21` [Example 1, (1S,2S)-2-methyl-N-((1^5S,6^3S,4S,Z)-1^5,10,10-trimethyl-1^2-(4-methylpiperazin-1-yl)-5,7-dioxo-1 ^8,1^9,6^1,6^2,6^3,6^4,6^5,6^6-octahydro-1^5H,1^7-oxa-1(13,15)-pyrido[3',2':7,8][1,5]oxazonino[5,6-a]indola-2(4,2)-thiazola-6(1,3)-pyridazinacycloundecaphane-4-yl)cyclopropane-1-carboxamide], the IC50 in assay [1] was found to be 0.54 nM; on KRAS G12V-cRAF (NanoBRET KRAS G12V), 29.9 nM; at KRAS G12D-cRAF (NanoBRET KRAS G12D), 6.1 nM; in assay [2], 7.86 nM.

Turning to `C[C@H]1C[C@@H]1C(=O)N[C@H]1Cc2nc(cs2)-c2ccc3c(c2)c(c2n3CCCOCc3ncc(N4CCN(C)CC4)cc3-2)CC(C)(C)COC(=O)[C@@H]2CCCN(N2)C1=O` [Example 2, (1S,2S)-N-((6^3S,4S,Z)-10,10-dimethyl-1^2-(4-methylpiperazin-1-yl)-5,7-dioxo-1^8,1^9,6^1,6^2,6^3,6^4,6^5 ,6^6-octahydro-1^5H,1^7H-8-oxa-1(13,15)-pyrido[3',2':7,8][1,5]oxazonino[5,6-a]indola-2(4,2)-thiazola-6(1,3)-pyridazinacycloundecaphane-4-yl)-2-methylcyclopropane-1-carboxamide], the IC50 in assay [1] is 1.56 nM; on KRAS G12V-cRAF (NanoBRET KRAS G12V), 206 nM; on KRAS G12D-cRAF (NanoBRET KRAS G12D), 29.1 nM; in assay [2] it was 8.7 nM.

Turning to `C[C@H]1C[C@@H]1C(=O)N[C@H]1Cc2nc(cs2)-c2ccc3c(c2)c(c2n3[C@@H](C)CCOCc3ncc(N4CCN(C)CC4)cc3-2)CC(C)(C)COC(=O)[C@@H]2CCCN(N2)C1=O` [Example 4, (1S,2S)-2-methyl-N-((1^9S,6^3S,4S,Z)-1^9,10,10-trimethyl-1^2-(4-methylpiperazin-1-yl)-5,7-dioxo-1 ^8,1^9,6^1,6^2,6^3,6^4,6^5,6^6-octahydro-1^5H,1^7H-8-oxa-1(13,15)-pyrido[3',2':7,8][1,5]oxazonino[5,6-a]indola-2(4,2)-thiazola-6(1,3)-pyridazinacycloundecaphane-4-yl)cyclopropane-1-carboxamide], the IC50 was 6.2 nM in assay [1], 651 nM on KRAS G12V-cRAF (NanoBRET KRAS G12V), 155 nM at KRAS G12D-cRAF (NanoBRET KRAS G12D) and 51.9 nM in assay [2].

For `C[C@@H]1OCC[C@H](C)n2c(c3c4cc(ccc42)-c2csc(n2)C[C@H](NC(=O)[C@H]2C[C@@H]2C)C(=O)N2CCC[C@H](N2)C(=O)OCC(C)(C)C3)-c2cc(N3CCN(C)CC3)cnc21` [Example 5, (1S,2S)-2-methyl-N-((1^5S,1^9S,6^3S,4S,Z)-1^5,1^9,10,10-tetramethyl-1^2-(4-methylpiperazin-1-yl)-5,7-dioxo-1^8,1^9,6^1,6^2,6^3,6^4,6^5,6^6-octahydro-1^5H,1^7H-8-oxa-1(13,15)-pyrido[3',2':7,8][1,5]oxazonino[5,6-a]indola-2(4,2)-thiazola-6(1,3)-pyridazinacycloundecaphane-4-yl)cyclopropane-1-carboxamide], the IC50 is 1.08 nM in assay [1], 78.8 nM on KRAS G12V-cRAF (NanoBRET KRAS G12V), 25.9 nM at KRAS G12D-cRAF (NanoBRET KRAS G12D) and 6.92 nM in assay [2].

As to `CCN1CCN(c2cnc3c(c2)-c2c4c5cc(ccc5n2CCCOC3C)-c2csc(n2)CC(NC(=O)C2CC2C)C(=O)N2CCCC(N2)C(=O)OCC(C)(C)C4)CC1` [Example 21, (1S,2S)-N-((1^5S,6^3S,4S,Z)-12-(4-ethylpiperazin-1-yl)-1^5,10,10-trimethyl-5,7-dioxo-1^8,1^9,6^1,6^2,6^3 ,6^4,6^5,6^6-octahydro-1^5H,1^7H-8-oxa-1(13,15)-pyrido[3',2':7,8][1,5]oxazonino[5,6-a]indola-2(4,2)-thiazola-6(1,3)-pyridazinacycloundecaphane-4-yl)-2-methylcyclopropane-1-carboxamide], the IC50 in assay [1] (setting [3]) was 1.46 nM; at KRAS G12V-cRAF (read-out: NanoBRET KRAS G12V), 15.1 nM; on KRAS G12D-cRAF (read-out: NanoBRET KRAS G12D), 3.95 nM; in assay [2] (setting [4]), 2.19 nM.

As to `COCCN1CCN(c2cnc3c(c2)-c2c4c5cc(ccc5n2CCCOC3C)-c2csc(n2)CC(NC(=O)C2CC2C)C(=O)N2CCCC(N2)C(=O)OCC(C)(C)C4)CC1` [Example 22, (1S,2S)-N-((1^5S,6^3S,4S,Z)-1^2-(4-(2-methoxyethyl)piperazin-1-yl)-1^5,10,10-trimethyl-5,7-dioxo-1 ^8,1^9,6^1,6^2,6^3,6^4,6^5,6^6-octahydro-1^5H,1^7H-8-oxa-1(13,15)-pyrido[3',2':7,8][1,5]oxazonino[5,6-a]indola-2(4,2)-thiazola-6(1,3)-pyridazinacycloundecaphane-4-yl)-2-methylcyclopropane-1-carboxamide], the IC50 came out at 1.03 nM in assay [1] (setting [3]), 22.9 nM at KRAS G12V-cRAF (read-out: NanoBRET KRAS G12V), 6.6 nM at KRAS G12D-cRAF (read-out: NanoBRET KRAS G12D) and 2.62 nM in assay [2] (setting [4]).

As to `CCN1CCN(c2cnc3c(c2)-c2c4c5cc(ccc5n2CCCOC3C)-c2csc(n2)CC(NC(=O)C23CC(C)(C2)C3)C(=O)N2CCCC(N2)C(=O)OCC(C)(C)C4)CC1` [Example 37, N-((1^5S,6^3S,4S,Z)-1^2-(4-ethylpiperazin-1-yl)-1^5,10,10-trimethyl-5,7-dioxo-1^8,1^9,6^1,6^2,6^3,6^4,6^56^6-octahydro-1^5H,1^7H-8-oxa-1(13,15)-pyrido[3',2':7,8][1,5]oxazonino[5,6-a]indola-2(4,2)-thiazola-6(1,3)-pyridazinacycloundecaphane-4-yl)-3-methylbicyclo[1.1.1]pentane-1-carboxamide], the IC50 in assay [1] (setting [3]) was found to be 1.02 nM; on KRAS G12V-cRAF (read-out: NanoBRET KRAS G12V), 22.4 nM; at KRAS G12D-cRAF (read-out: NanoBRET KRAS G12D), 5.32 nM; in assay [2] (setting [4]), 4.28 nM.

As to `CCN1CCN(c2cnc3c(c2)-c2c4c5cc(ccc5n2C[C@@H](OC)CO[C@H]3C)-c2csc(n2)C[C@H](NC(=O)[C@H]2C[C@@H]2C)C(=O)N2CCC[C@H](N2)C(=O)OCC(C)(C)C4)CC1` [Example 203, (1S,2S)-N-((1^5S,1^8R,6^3S,4S,Z)-1^2-(4-ethylpiperazin-1-yl)-1^8-methoxy-1^5,10,10-trimethyl-5,7-dioxo-1^8,1^9,6^1,6^26^3,6^4,6^5,6^6-octahydro-1^5H,1^7H-8-oxa-1(13,15)-pyrido[3',2':7,8][1,5]oxazonino[5,6-a]indola-2(4,2)-thiazola-6(1,3)-pyridazinacycloundecaphane-4-yl)-2-methylcyclopropane-1-carb oxamide], the IC50 in assay [1] (setting [3]) was 3.3 nM; in assay [2] (setting [4]) it was 2.1 nM.

`CC(C)[C@@H](C(=O)N[C@H]1Cc2nc(cs2)-c2ccc3c(c2)c(c2n3CCCO[C@@H](C)c3ncc(N4CCN(C)CC4)cc3-2)CC(C)(C)COC(=O)[C@H]2NN(C1=O)C1CC2C1)N(C)C(=O)N(C)C` [Example 204, (2S)-3-methyl-N-((1^5S,6^4S,4S,Z)-1^5,10,10-trimethyl-1^2-(4-methylpiperazin-1-yl)-5,7-dioxo-1^8,1^9-dihydro-1^5H,1^7H-8-oxa-6^2,6^3-diaza-1(13,15)-pyrido[3',2':7,8][1,5]oxazonino[5,6-a]indola-2(4,2) -thiazola-6(2,4)-bicyclo[3.1.1]heptanacycloundecaphane-4-yl)-2-(1,3,3-trimethylureido)butanamide]: the IC50 came to 0.2 nM in assay [1] (setting [3]) and 0.4 nM in assay [2] (setting [4]).

The values above are taken from EP4800018A1, “PAN-KRAS INHIBITOR AND USE THEREOF IN MEDICINES” (Betta Pharmaceuticals Co., Ltd., priority 2023, dated 2025).
